This is an account of results in ChEMBL document CHEMBL4627384, “l-Thyroxin and the Nonclassical Thyroid Hormone TETRAC Are Potent Activators of PPARγ” (J Med Chem, 2020).

For data set [1], the target named is T1, Peroxisome proliferator-activated receptor gamma (Homo sapiens) (UniProt P37231).
T1 sequence (whole entry): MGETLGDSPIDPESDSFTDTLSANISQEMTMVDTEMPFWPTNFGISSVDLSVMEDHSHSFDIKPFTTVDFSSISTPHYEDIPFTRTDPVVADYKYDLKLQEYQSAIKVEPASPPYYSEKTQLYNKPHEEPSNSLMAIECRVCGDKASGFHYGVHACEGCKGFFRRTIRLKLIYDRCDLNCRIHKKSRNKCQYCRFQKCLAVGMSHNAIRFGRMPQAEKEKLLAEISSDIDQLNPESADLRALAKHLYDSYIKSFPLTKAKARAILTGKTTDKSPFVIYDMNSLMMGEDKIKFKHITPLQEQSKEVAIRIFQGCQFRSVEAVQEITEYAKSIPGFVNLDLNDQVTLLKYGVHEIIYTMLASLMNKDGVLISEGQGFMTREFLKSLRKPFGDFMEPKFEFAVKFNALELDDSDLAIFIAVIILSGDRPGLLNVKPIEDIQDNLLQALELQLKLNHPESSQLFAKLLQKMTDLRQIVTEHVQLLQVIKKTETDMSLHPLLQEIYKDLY
Briefly: Agonist activity at PPARgamma in human HepG2 cells with THRA knockdown assessed as induction of CD36 expression at 30 uM incubated for 8 hrs in by Western blot analysis. Format: cell-based.

The target of data set [2] is Luciferin 4-monooxygenase (Photinus pyralis) (UniProt P08659). The experiment in a line: Activation of firefly luciferase expressed in HEK293T cells at 15 uM incubated for 14 to 16 hrs by reporter gene assay. Format: cell-based. Particulars: HEK-293T. For orientation: Reporter assays use an easily measured gene product as a stand-in for the process of interest.
Sequence of Luciferin 4-monooxygenase (Photinus pyralis) (P08659 whole entry): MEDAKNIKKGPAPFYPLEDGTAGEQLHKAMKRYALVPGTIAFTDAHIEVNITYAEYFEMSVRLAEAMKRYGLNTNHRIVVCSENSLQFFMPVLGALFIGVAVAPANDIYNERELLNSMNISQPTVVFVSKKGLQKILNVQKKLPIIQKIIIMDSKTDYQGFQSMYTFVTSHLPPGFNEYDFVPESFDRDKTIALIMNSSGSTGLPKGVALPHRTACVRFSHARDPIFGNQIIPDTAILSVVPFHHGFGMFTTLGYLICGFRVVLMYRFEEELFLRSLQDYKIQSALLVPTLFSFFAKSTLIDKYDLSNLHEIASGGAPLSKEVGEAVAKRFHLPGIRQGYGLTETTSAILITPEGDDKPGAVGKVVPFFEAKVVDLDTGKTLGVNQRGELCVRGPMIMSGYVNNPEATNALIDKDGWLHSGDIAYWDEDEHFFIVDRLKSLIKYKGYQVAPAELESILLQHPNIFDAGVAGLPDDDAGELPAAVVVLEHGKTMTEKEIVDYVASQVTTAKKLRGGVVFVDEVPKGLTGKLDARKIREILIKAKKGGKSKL
A short description of data set [3]: Drug metabolism in human HepG2 cells assessed as 2-(4-(4-hydroxy-3-iodophenoxy)-3,5-diiodophenyl)acetic acid formation at 10 uM incubated for 24 hrs by LC-MS analysis. Format: ADME, cell-based. The conditions noted are these: hepg2, 24 h.
The test system of the next data set is HEK-293T. Briefly: Activation of renilla luciferase expressed in HEK293T cells at 15 uM incubated for 14 to 16 hrs by reporter gene assay. Particulars: Renilla reniformis. Format: cell-based.
Data set [4] deals with T1, Peroxisome proliferator-activated receptor gamma (Homo sapiens). Briefly: Agonist activity at recombinant human pFA-CMV fused PPARgamma LBD expressed in HEK293T cells transfected with pFR-luciferase plasmid and pRL-SV40 plasmid at 15 uM incubated for 14 to 16 hrs in presence of PPARgamma antagonist GW9662 by dual glo luciferase reporter gene assay. Format: cell-based. Particulars: HEK-293T.

Data set [5] has the same target. The experiment in a line: Agonist activity at PPARgamma in human HepG2 cells with THRA knockdown assessed as induction of CD36 expression at 1 uM incubated for 8 hrs in by Western blot analysis. In kind it is cell-based. (Immunoblotting shows a protein as a band on a membrane.)
For data set [6] the target is unchanged. Briefly: Agonist activity at N-terminal GFP-fused PPARgamma LBD (unknown origin) assessed as biotin-labeled CBP recruitment incubated for 2 hrs by HT-FRET assay relative to rosiglitazone.
Data set [7] deals with T2, Peroxisome proliferator-activated receptor gamma (Mus musculus) (UniProt P37238).
T2 sequence (whole entry): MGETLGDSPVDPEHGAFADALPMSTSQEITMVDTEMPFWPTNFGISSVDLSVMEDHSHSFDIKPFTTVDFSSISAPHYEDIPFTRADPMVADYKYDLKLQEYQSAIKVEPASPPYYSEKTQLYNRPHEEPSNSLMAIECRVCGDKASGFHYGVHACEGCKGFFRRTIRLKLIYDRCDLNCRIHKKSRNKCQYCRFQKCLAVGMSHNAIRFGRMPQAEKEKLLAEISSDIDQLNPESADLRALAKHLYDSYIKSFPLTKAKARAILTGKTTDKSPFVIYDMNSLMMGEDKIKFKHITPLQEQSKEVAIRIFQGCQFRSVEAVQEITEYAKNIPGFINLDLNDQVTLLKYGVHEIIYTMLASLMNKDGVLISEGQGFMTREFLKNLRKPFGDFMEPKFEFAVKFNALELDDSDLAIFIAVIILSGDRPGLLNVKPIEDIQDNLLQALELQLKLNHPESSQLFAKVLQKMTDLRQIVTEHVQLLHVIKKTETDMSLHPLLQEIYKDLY
The experiment in a line: Agonist activity at PPARgamma in mouse 3T3L1 adipocytes assessed as induction of GLUT4 mRNA expression at 1 uM by qRT-PCR analysis. In kind it is cell-based. Particulars: 3T3-L1. On the technique in general: Real-time PCR tracks product formation cycle by cycle.

Data set [8] addresses T1, Peroxisome proliferator-activated receptor gamma (Homo sapiens). The experiment in a line: Agonist activity at PPARgamma in human HepG2 cells assessed as induction of CD36 mRNA expression at 0.03 to 1 uM incubated for 8 hrs by qPCR analysis. Format: cell-based.
The target is the same in data set [9]. The experiment in a line: Agonist activity at PPARgamma in human HepG2 cells without THRB knockdown assessed as induction of CD36 expression at 1 uM incubated for 8 hrs in by Western blot analysis. In kind it is cell-based.
Data set [10] deals with T2, Peroxisome proliferator-activated receptor gamma (Mus musculus). The experiment in a line: Agonist activity at PPARgamma in mouse 3T3L1 assessed as induction of adipocytes differentiation by Oil Red O staining based assay. In kind it is cell-based. Particulars: 3T3-L1.
Data set [11] addresses T1, Peroxisome proliferator-activated receptor gamma (Homo sapiens). The experiment in a line: Agonist activity at N-terminal GFP-fused PPARgamma LBD (unknown origin) assessed as biotin-labeled SRC-1 recruitment incubated for 2 hrs by HT-FRET assay relative to rosiglitazone.
For data set [12] the target is unchanged. Briefly: Agonist activity at PPARgamma in human HepG2 cells without THRA knockdown assessed as induction of CD36 expression at 1 uM incubated for 8 hrs in by Western blot analysis. Format: cell-based.
For data set [13], the target named is RXR alpha/PPAR gamma (Homo sapiens) (UniProt P37231+P19793). The experiment in a line: Agonist activity at recombinant human pFA-CMV fused PPARgamma LBD transfected in HEK293T cells/human pFA-CMV fused RXRalpha LBD transfected in HEK293T cells assessed as increase in reporter activation at 0.1 to 3 uM incubated for 14 to 16 hrs using […]:RXRalpha LBD at ratio of 4:1 to 1:1 by dual glo luciferase reporter gene assay relative to rosiglitazone. Format: cell-based. Particulars: HEK-293T.

In data set [14] the target is T3, Retinoic acid receptor RXR-alpha (Homo sapiens) (UniProt P19793).
T3 sequence (whole entry): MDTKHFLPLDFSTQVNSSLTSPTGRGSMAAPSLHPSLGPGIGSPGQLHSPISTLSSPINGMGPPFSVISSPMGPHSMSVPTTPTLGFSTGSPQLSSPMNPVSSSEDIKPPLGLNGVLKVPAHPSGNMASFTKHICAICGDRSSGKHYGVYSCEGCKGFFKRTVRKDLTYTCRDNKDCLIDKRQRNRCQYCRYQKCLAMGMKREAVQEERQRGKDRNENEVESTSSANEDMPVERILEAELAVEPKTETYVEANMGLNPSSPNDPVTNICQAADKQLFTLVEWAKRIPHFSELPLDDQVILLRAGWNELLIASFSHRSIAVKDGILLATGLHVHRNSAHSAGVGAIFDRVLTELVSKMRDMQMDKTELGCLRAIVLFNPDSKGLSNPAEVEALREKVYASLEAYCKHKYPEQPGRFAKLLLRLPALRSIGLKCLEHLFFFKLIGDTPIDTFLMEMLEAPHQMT
Briefly: Agonist activity at GFP RXRalpha LBD (unknown origin) assessed as biotin-labeled SRC-1 recruitment incubated for 2 hrs by HT-FRET assay relative to SR11237.

Data set [15] deals with T1, Peroxisome proliferator-activated receptor gamma (Homo sapiens). Briefly: Agonist activity at recombinant human pFA-CMV fused PPARgamma LBD expressed in HEK293T cells transfected with pFR-luciferase plasmid and pRL-SV40 plasmid at 0.1 uM incubated for 14 to 16 hrs in presence of PPARgamma antagonist GW9662 by dual glo luciferase reporter gene assay. In kind it is cell-based. Particulars: HEK-293T.

Activity calls are given as the source filed them. No cut-off for these calls is given here.

With `N[C@@H](Cc1cc(I)c(Oc2cc(I)c(O)c(I)c2)c(I)c1)C(=O)O` [LEVOTHYROXINE], in data set [1], the result was Active. In addition, the result (in [2]; with HEK-293T; in data set [4]) was inactive. Moreover, in data set [3], the Drug metabolism entry is recorded as “Metabolite_Notdetected”.

Turning to `O=C(O)Cc1cc(I)c(Oc2cc(I)c(O)c(I)c2)c(I)c1` [TETRAC], the outcome in data set [5], in data set [6], in data set [7], in data set [8], in data set [9] and in data set [11] was Active. In addition, the outcome in data set [12] and in [13] was Active. In addition, the Activity entry in data set [10] was “Dose-dependent effect”; in [14], 8.2%. For the same molecule, the outcome in [15] was inactive.
